Measured values: publication PMC8530938 (Chemico-biological interactions, 2021)
Like-named read-outs stand apart in the source and are kept apart here.

Legend:
yeast ADH1 = details: oxidation; ref [77]; cited from earlier work
yeast ADH2 = details: oxidation; ref [77]; cited from earlier work
[1] = molecular target: T1, T45G yeast alcohol dehydrogenase (ADH1) (Saccharomyces cerevisiae, UniProt P00330, T46G); assay: biochemical; type: biochemical
[2] = molecular target: wild-type yeast alcohol dehydrogenase (ADH1); details: pH 7.3, 30 °C, ref [21], cited from earlier work
[3] = molecular target: T1, T45G yeast alcohol dehydrogenase (ADH1)
[4] = tested on: horse liver ADH1E with S48A substitution; details: ref [6]; cited from earlier work
[5] = molecular target: T1, T45G yeast alcohol dehydrogenase (ADH1); assay: Spectrophotometric titration with NAD+ in the presence of 10 mM pyrazole; type: binding; details: titration in the presence of 10 mM pyrazole
horse liver ADH = details: cited from earlier work
[6] = molecular target: wild-type yeast enzyme (ADH1); details: read-out: Kd of NAD+; pH 8; ref [11]; cited from earlier work

T1 sequence (P00330 2-348 T46G): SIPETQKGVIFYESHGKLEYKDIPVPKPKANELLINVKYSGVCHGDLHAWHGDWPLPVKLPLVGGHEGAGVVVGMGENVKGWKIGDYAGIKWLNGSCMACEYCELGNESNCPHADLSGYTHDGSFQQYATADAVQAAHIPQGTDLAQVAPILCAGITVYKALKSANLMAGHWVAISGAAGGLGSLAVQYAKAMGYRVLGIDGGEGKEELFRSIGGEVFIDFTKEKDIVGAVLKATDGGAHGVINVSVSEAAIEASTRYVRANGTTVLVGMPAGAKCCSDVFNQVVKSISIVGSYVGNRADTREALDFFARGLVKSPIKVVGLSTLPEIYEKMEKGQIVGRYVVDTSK

OCc1ccccc1 [Benzyl alcohol]
turnover number (yeast ADH1): 0.012 s⁻¹
turnover number (yeast ADH2): 1.9 s⁻¹

OCC(F)(F)F [CF3CH2OH, 2,2,2-trifluoroethanol]
Ki [1]: 27000 µM
increase of dissociation constant (Ki), T45G relative to wild type ([1]; pH 7.3): 10 fold
Ki ([2]; read-out: Ki, dissociation (inhibition) constant, competitive inhibitor of ethanol): 2500 µM

CCO [ethanol]
V1/Et, turnover number for ethanol oxidation ([1]; pH 7.3, 30 °C): 0.64 s⁻¹
V1/Et (ethanol oxidation) ([3]; pH 5.60, 30 °C): 0.11 s⁻¹
V1/Et (ethanol oxidation) ([3]; pH 6.05, 30 °C): 0.19 s⁻¹
V1/Et (ethanol oxidation) ([3]; pH 6.54, 30 °C): 0.32 s⁻¹
V1/Et (ethanol oxidation) ([3]; pH 7.00, 30 °C): 0.42 s⁻¹
V1/Et (ethanol oxidation) ([3]; pH 8.07, 30 °C): 0.72 s⁻¹
V1/Et (ethanol oxidation) ([3]; pH 9.00, 30 °C): 0.56 s⁻¹
V1/Et (ethanol oxidation) ([3]; pH 9.95, 30 °C): 0.44 s⁻¹
Kb ([3]; read-out: Kb, CH3CH2OH, pH 9.95, 30 °C): 91000 µM
V1/Et, turnover number for ethanol oxidation [2]: 360 s⁻¹
turnover with ethanol [4]: 0.018 s⁻¹

CC=O [acetaldehyde]
V2/Et, turnover number for acetaldehyde reduction ([1]; pH 7.3, 30 °C): 7.8 s⁻¹
Kp, CH3CHO ([3]; pH 5.52, 30 °C): 52 mM
V2/Et (acetaldehyde reduction) ([3]; pH 5.52, 30 °C): 21 s⁻¹
Kp, CH3CHO ([3]; pH 6.06, 30 °C): 46 mM
V2/Et (acetaldehyde reduction) ([3]; pH 6.06, 30 °C): 16 s⁻¹
Kp, CH3CHO ([3]; pH 6.52, 30 °C): 56 mM
V2/Et (acetaldehyde reduction) ([3]; pH 6.52, 30 °C): 16 s⁻¹
Kp, CH3CHO ([3]; pH 7.00, 30 °C): 41 mM
V2/Et (acetaldehyde reduction) ([3]; pH 7.00, 30 °C): 9.5 s⁻¹
Kp, CH3CHO ([3]; pH 7.65, 30 °C): 43 mM
V2/Et (acetaldehyde reduction) ([3]; pH 7.65, 30 °C): 9.3 s⁻¹
Kp, CH3CHO ([3]; pH 8.08, 30 °C): 35 mM
V2/Et (acetaldehyde reduction) ([3]; pH 8.08, 30 °C): 7.3 s⁻¹
Kp, CH3CHO ([3]; pH 8.96, 30 °C): 33 mM
V2/Et (acetaldehyde reduction) ([3]; pH 8.96, 30 °C): 4.2 s⁻¹
V2/Et, turnover number for acetaldehyde reduction [2]: 1800 s⁻¹

NC(=O)C1=CN([C@@H]2O[C@H](COP(=O)(O)OP(=O)(O)OC[C@H]3O[C@@H](n4cnc5c(N)ncnc54)[C@H](O)[C@@H]3O)[C@@H](O)[C@H]2O)C=CC1 [NADH]
Kq, Michaelis constant for NADH ([1]; pH 7.3, 30 °C): 47 µM
Ki ([1]; read-out: Kiq, dissociation (inhibition) constant for NADH, pH 7.3, 30 °C): 70 µM
Kq, NADH ([3]; pH 5.52, 30 °C): 9.6 µM
Kq, NADH ([3]; pH 6.06, 30 °C): 3.4 µM
Kq, NADH ([3]; pH 6.52, 30 °C): 18 µM
Kq, NADH ([3]; pH 7.00, 30 °C): 13 µM
Kq, NADH ([3]; pH 7.65, 30 °C): 220 µM
Kq, NADH ([3]; pH 8.08, 30 °C): 320 µM
Kq, NADH ([3]; pH 8.96, 30 °C): 910 µM
Ki ([3]; read-out: Kiq, NADH, pH 5.52, 30 °C): 3.8 µM
Ki ([3]; read-out: Kiq, NADH, pH 6.06, 30 °C): 8.6 µM
Ki ([3]; read-out: Kiq, NADH, pH 6.52, 30 °C): 11 µM
Ki ([3]; read-out: Kiq, NADH, pH 7.00, 30 °C): 38 µM
Ki ([3]; read-out: Kiq, NADH, pH 7.65, 30 °C): 156 µM
Ki ([3]; read-out: Kiq, NADH, pH 8.08, 30 °C): 290 µM
Ki ([3]; read-out: Kiq, NADH, pH 8.96, 30 °C): 450 µM
Kq, Michaelis constant for NADH [2]: 94 µM
Ki ([2]; read-out: Kiq, dissociation (inhibition) constant for NADH): 31 µM

NC(=O)c1ccc[n+]([C@@H]2O[C@H](COP(=O)([O-])OP(=O)(O)OC[C@H]3O[C@@H](n4cnc5c(N)ncnc54)[C@H](O)[C@@H]3O)[C@@H](O)[C@H]2O)c1 [NAD^+]
Ka, Michaelis constant for NAD+ ([1]; pH 7.3, 30 °C, 83 mM potassium phosphate, 40 mM KCl, 0.25 mM EDTA): 1500 µM
Ki ([1]; read-out: Kia, dissociation (inhibition) constant for NAD+, pH 7.3, 30 °C): 1600 µM
apparent Kd for NAD+ [5]: about the same as for wild-type enzyme
Ka, NAD+ ([3]; pH 5.60, 30 °C): 660 µM
Ka, NAD+ ([3]; pH 6.05, 30 °C): 510 µM
Ka, NAD+ ([3]; pH 6.54, 30 °C): 720 µM
Ka, NAD+ ([3]; pH 7.00, 30 °C): 690 µM
Ka, NAD+ ([3]; pH 8.07, 30 °C): 2100 µM
Ka, NAD+ ([3]; pH 9.00, 30 °C): 2140 µM
Ka, NAD+ ([3]; pH 9.95, 30 °C): 1580 µM
Ki ([3]; read-out: Kia, NAD+, pH 5.60, 30 °C): 800 µM
Ki ([3]; read-out: Kia, NAD+, pH 6.05, 30 °C): 650 µM
Ki ([3]; read-out: Kia, NAD+, pH 6.54, 30 °C): 720 µM
Ki ([3]; read-out: Kia, NAD+, pH 7.00, 30 °C): 880 µM
Ki ([3]; read-out: Kia, NAD+, pH 8.07, 30 °C): 1130 µM
Ki ([3]; read-out: Kia, NAD+, pH 9.00, 30 °C): 1470 µM
Ki ([3]; read-out: Kia, NAD+, pH 9.95, 30 °C): 2370 µM
Ka, Michaelis constant for NAD+ ([2]; 83 mM potassium phosphate, 40 mM KCl, 0.25 mM EDTA): 160 µM
Ki ([2]; read-out: Kia, dissociation (inhibition) constant for NAD+): 950 µM
Kd (horse liver ADH; read-out: Kd of NAD+, open conformation of the protonated enzyme, pH 8, ref [11]): 670 µM
Kd (horse liver ADH; read-out: observed dissociation constant for NAD+, after deprotonation and the conformational change, ref [52]): 27 µM
Kd [6]: 1000 µM
